Assay results reported in US6602532B2, “Process of preserving food and food preservative” (F.G.A. Laboratories Flavourence Corporation, priority 2000, dated 2003).
“Also recorded” adds a separate entry of the source.

What was measured:
S. typhimurium = assay: Growth curve by turbidity at 660 nm; type: cell-based, Salmonella typhimurium
Protocol: (§1) (iii) L-serine or D-serine as the amino acid was dissolved in sterilized purified water and added with bacteria solutions (B. subtilis and S. typhimurium) of the same amount and then introduced in test tubes. 1 ml of each solution was inoculated on a 9 ml DM medium (partially modified) so that final serine concentration would be 0.5% (w/v). Turbidity of the medium added with the bacteria solution and serine was measured on 660 nm at 37° C. for 10 hours immediately after the inoculation and then growth curves of B. subtilis and S. typhimurium were formed.
(§2) As a control, turbidity was measured on a medium merely added with sterilized purified water instead of serine.
(§3) (ii) Turbidity was measured on 660 nm for 8 hours immediately after the inoculation and growth curves of S. typhimurium and B. subtilis were formed in substantially the same manner as the above-described (1)-(iii), except that only L-serine or D-serine of 0.5% (w/v), or L-serine or D serine of 0.5% (w/v) in combination with protamine of 0.03% (w/v), each at the final concentration, were added and solutions of S. typhimurium and B. subtilis were used.
(§4) With compounds shown in FIGS. 14, 16 and 18, growth curves of S. typhimurium, B. subtilis and E. coli were formed in substantially the same manner as the above-described (1)-(111), respectively. The results are shown in FIGS. 14, 16 and 18, respectively. For comparison, the compounds were solely used without L-serine and the growth curves of S. typhimurium, B. subtilis and E. coli were formed. The results are shown in FIGS. 15, 17 and 19, respectively.

B. subtilis = assay: Growth curve by turbidity at 660 nm; type: cell-based, Bacillus subtilis; conditions: for proliferation of B. subtilis compared with the control: serine 0.5% (w/v), 37° C., 10 hours, turbidity 660 nm, FIG. 3
Protocol: as §1, §2, §3
Growth curves of B. subtilis were formed in the same manner as the above-described (4) except that protamine of 0.03% (w/v) was replaced with lysozyme of 0.1% (w/v).
as §4

B. subtilis MF920 = assay: Survival rate (viable cell count) after addition of amino acids and heat treatment; type: cell-based, Bacillus subtilis; conditions: heated at 80° C. for 10 minutes; for viable cell count compared with sterilized purified water alone: amino acid 1% (w/v), FIG. 5
Protocol: In the same manner as the above-mentioned (1)-(i), additives of glycine, L-alanine, L-serine, L-lysine monohydrochloride, L-threonine and L-arginine monohydrochloride were dissolved in sterilized purified water, respectively to prepare amino acid solutions of 10% (w/v). Then a bacteria solution (B. subtilis MF920) was added to 1 ml of each of the amino acid solutions so that amino acid concentration in each tube would be 1% (w/v).
The test tubes were heated at 80° C. for 10 minutes and then quenched. Then, 10 fold dilutions of the obtained bacteria solutions were prepared.
0.1 ml of each dilution was inoculated on three dishes and incubated 2 days to count expressed colonies. The survival rate was measured in the same manner as described above.
Change in the bacteria survival rate was examined in the same manner as the above-mentioned (2) except that the concentration of L-serine was varied within 0.01 to 1% (w/v).

E. coli [1] = assay: Survival rate of E. coli after addition of L- or D-serine, with or without heat treatment; type: cell-based, Escherichia coli; conditions: serine 0.5% (w/v), FIG. 2
Protocol: (i) Glycine, L-alanine, L-serine, L-lysine monohydrochloride, L threonine or L-arginine monohydrochloride was put in test tubes as an additive, respectively, and dissolved in sterilized purified water to prepare amino acid solutions of 10% (w/v). To 1 ml of each of the amino acid solutions 9 ml of the bacteria solution was added so that the concentration of each amino acid would be 1% (w/v).
The test tubes containing these amino acids and the bacteria solution were allowed to stand at room temperature for 10 minutes and 10^4 fold dilutions were obtained from the resulting solutions.
0.1 ml of each dilution was inoculated on three dishes and incubated for 2 days to count the number of expressed colonies as the viable cell count.
In the same manner as described above, a 10^4 fold dilution prepared without adding amino acid was used as a blank and incubated to count expressed colonies as the viable cell count.
As a survival rate, the viable cell count of bacteria added with amino acid with respect to the viable cell count measured in the blank was measured.
(ii) The survival rate of E. coli was measured in the same manner as described above except that L-serine and D-serine of 0.5% (w/v) as the amino acids and an E. coli solution as the bacteria solution were used.

E. coli [2] = assay: Growth curve by turbidity at 660 nm; type: cell-based, Escherichia coli; conditions: L-serine 1.5% (w/v) solely, 8 hours; FIG. 7
Protocol: as §1, §2
(i) Turbidity of the medium was measured on 660 nm for 8 hours immediately after the inoculation and the growth curve of E. coli was formed in the same manner as the above-described (1)-(iii) except that L-serine of 1.5% (w/v), or L-serine or D-serine of 1.5% (w/v) and protamine of 0.1% (w/v), each at the final concentration, were added and an E. coli solution was used.
With compounds shown in FIGS. 14, 16 and 18, growth curves of S. typhimurium, B. subtilis and E. coli were formed in substantially the same manner as the above-described (1)-(111), respectively. The results are shown in FIGS. 14, 16 and 18, respectively. […]

E. coli [3] = assay: E. coli survival rate after heat treatment in the presence of casein; type: cell-based, Escherichia coli; conditions: L-serine 1% (w/v), casein 1 to 4% (w/v), heated at 40° C. for 10 minutes; FIG. 11
Protocol: L-serine of 0% or 1% (w/v), casein of 1 to 4% (w/v) and a 802 growth medium were added in test tubes. The test tubes were heated at 40° C. for 10 minutes and quenched. 10-fold dilutions of the resulting solutions were prepared. 0.1 ml of each of the dilutions was inoculated on three dishes, incubated for one day and expressed colonies were counted to examine change in the E. coli survival rate.

[4] = Amino acid analysis of L-serine after a heat treatment; type: physicochemical; conditions: for L-serine concentration: nominal 2 nmol/10 μl
Protocol: L-serine was added in 1% (w/v) to the bacteria solution and to the medium used in the above. The obtained bacteria culture solution and medium were divided in two test tubes, respectively. One of them was allowed to stand at room temperature for 10 minutes and the other was heated at 80° C. for 10 minutes. Both were quenched and diluted so that the L-serine concentration would be 2 nmol/10 μl and amino acid analysis was carried out with an amino acid automatic analyzer.

Escherichia coli = conditions: in the presence of ethanol; cited from earlier work
[5] = serine 0.5% (w/v) only, 8 hours, FIG. 8
[6] = serine 0.5% (w/v), 37° C., 10 hours, turbidity 660 nm, FIG. 4

For `N[C@H](CO)C(=O)O` [D-serine], the “proliferation of S. typhimurium relative to the control” value (S. typhimurium; [5]) was “about 80%”, the “proliferation of S. typhimurium relative to the control” value (S. typhimurium; [6]) was “about 80%” and the “proliferation of B. subtilis relative to the control” value (B. subtilis; serine 0.5% (w/v) only, 8 hours, FIGS. 9 and 10) was “about 50%”. The “proliferation of B. subtilis compared with the control” value (B. subtilis) was 80%.
In the case of `C[C@H](N)C(=O)O` [L-alanine], the “viable cell count compared with sterilized purified water alone” value (B. subtilis MF920) is reported as “slightly reduced”.
For `Cl.N=C(N)NCCC[C@H](N)C(=O)O` [L-arginine, L-arginine monohydrochloride], the “viable cell count compared with sterilized purified water alone” value (B. subtilis MF920) was “increase”.
With `Cl.NCCCC[C@H](N)C(=O)O` [L-lysine, L-lysine monohydrochloride] the “viable cell count compared with sterilized purified water alone” value (B. subtilis MF920) was “increase”.
For `N[C@@H](CO)C(=O)O` [L-serine], the “survival rate as a function of L-serine concentration” value (B. subtilis MF920; L-serine 0.01 to 1% (w/v), FIG. 6) was “the higher the L-serine concentration was, the more the survival rate decreased”, the “viable cell count compared with sterilized purified water alone” value (B. subtilis MF920) was “remarkably reduced; also recorded: greatest reduction” and the “proliferation of S. typhimurium relative to the control” value (S. typhimurium; [5]) was “about 80%”. For the same compound, the “proliferation of S. typhimurium relative to the control” value (S. typhimurium; [6]) was “about 80%”, the “bacteria proliferation after heat treatment” value (E. coli [1]; heat treatment at 80° C. for 10 minutes) was “further inhibited” and the “bacteria proliferation relative to the blank” value (E. coli [1]; no heat treatment) was “about 30%”. For the same compound, the “proliferation of E. coli relative to the control” value (E. coli [2]) was “about 40%”, the “E. coli proliferation in the presence of casein” value (E. coli [3]) was “effective inhibition” and the “proliferation of B. subtilis compared with the control” value (B. subtilis) was “about 10%”. For the same compound, the decomposition by heating ([4]; 80° C. for 10 minutes, regardless of the presence of bacteria) was “would not be decomposed”, the L-serine concentration ([4]; bacteria solution heated (80° C., 10 minutes)) was 2.3 nmol/10 μl and the L-serine concentration ([4]; bacteria solution unheated (room temperature 10 minutes)) was 2.3 nmol/10 μl. The L-serine concentration ([4]; medium heated (80° C., 10 minutes)) was 2.3 nmol/10 μl and the L-serine concentration ([4]; medium unheated (room temperature 10 minutes)) was 2.2 nmol/10 μl.
In the case of `C[C@@H](O)[C@H](N)C(=O)O` [L-threonine], the “viable cell count compared with sterilized purified water alone” value (B. subtilis MF920) is reported as “increase”.
In the case of `NCC(=O)O` [glycine], the “bacteriostasis to Escherichia coli” value (Escherichia coli) is listed as “shows bacteriostasis” and the “viable cell count compared with sterilized purified water alone” value (B. subtilis MF920) is listed as “slightly reduced”.
